The values below come from article PMC5901755 (ACS chemical neuroscience, 2016).

The experiment concerns the target T1, TREK-1 (Homo sapiens, UniProt O95069).
T1 sequence (O95069 1-426): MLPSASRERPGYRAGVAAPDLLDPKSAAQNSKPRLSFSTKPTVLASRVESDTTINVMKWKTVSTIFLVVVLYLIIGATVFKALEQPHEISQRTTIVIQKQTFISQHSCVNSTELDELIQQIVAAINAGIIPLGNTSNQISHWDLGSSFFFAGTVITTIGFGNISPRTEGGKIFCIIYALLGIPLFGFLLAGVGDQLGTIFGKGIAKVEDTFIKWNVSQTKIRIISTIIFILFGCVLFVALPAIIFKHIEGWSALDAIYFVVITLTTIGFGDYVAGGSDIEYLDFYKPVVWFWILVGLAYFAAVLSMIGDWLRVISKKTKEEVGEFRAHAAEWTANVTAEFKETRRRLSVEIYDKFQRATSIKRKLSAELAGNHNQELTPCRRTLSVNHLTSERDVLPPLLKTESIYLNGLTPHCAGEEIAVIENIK
Description: Tl+ flux fluorescence. As to conditions: inhibitor; 1.8 µM, 10 min pretreatment; pH 7.3. Format: cell-based.

On to `CCCCC[C@H](O)/C=C/[C@H]1CC[C@H](O)[C@@H]1C/C=C\CCCC(=O)O` [11-deoxy prostaglandin F2α], for which the “Tl+ flux fluorescence (Thallos), T-REx-HEK293” value is given as “we observed that 11-deoxy prostaglandin F2α inhibited TREK-1 channels”.
